Target: T1, recombinant human (rh) KLK5 protease (Homo sapiens, UniProt Q9Y337)
T1 construct: purchased R&D Systems 1108-SE
T1 sequence (Q9Y337 23-293): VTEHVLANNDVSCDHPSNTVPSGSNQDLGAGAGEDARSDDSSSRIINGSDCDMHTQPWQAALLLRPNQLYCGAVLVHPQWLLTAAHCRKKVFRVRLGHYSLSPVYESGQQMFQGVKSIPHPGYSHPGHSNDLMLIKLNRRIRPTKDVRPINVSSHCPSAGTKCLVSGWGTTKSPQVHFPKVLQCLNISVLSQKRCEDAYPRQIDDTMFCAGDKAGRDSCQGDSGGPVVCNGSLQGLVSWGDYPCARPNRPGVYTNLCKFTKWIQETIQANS
Test: Enzymatic activity of Kallikrein 5 (KLK5), fluorogenic peptide substrate Boc-V-P-R-AMC
Format: biochemical
Description: The compound of Formula 1a was assayed for enzymatic activity of Kallikrein 5 (KLK5) as follows, and its activity compared to that of salicylic acid. The KLK5 activity of the compound of Formula 1a was calculated as a percentage of KLK5 activity relative to salicylic acid.
In the stratum corneum, skin's outermost layer, cell-to-cell cohesion depends primarily on proteins known as the corneodesmosomes. During skin remodeling and renewal dead cells are shed from the skin surface by the action of native proteases that break down the corneodesmosomes. […] To this end, the enzymatic activity of a member of the KLK family, recombinant human (rh) KLK5, was monitored following pre-incubation with actives and measuring the rate of peptide bond cleavage of a synthetic substrate.
Enzymatic activity of KLK5 was measured by incubating recombinant human (rh) KLK5 protease (R&D Systems, Cat No. 1108-SE) with a specific fluorogenic peptide substrate Boc-V-P-R-AMC (R&D Systems, Cat No. ES011). […] Increase in fluorescence reading indicates an increase in rhKLK5 activity. […] After 60 seconds of incubation, fluorescence was measured at 340 nm (Excitation wavelength) and 485 nm (Emission wavelength) every 1 minute for 7 minutes. Rate (kinetics) of enzyme activity was calculated as follows: Rate of enzyme activity=Change of fluorescent reading (after background correction)/Change of reaction time (min). […]

With O=C(Oc1ccccc1C(=O)O)c1ccccc1O [compound of Formula 1a] as the compound, how does the “KLK5 activity as a percentage relative to salicylic acid (stimulator effect)” value (relative to salicylic acid, dimer tested at a concentration approximately half of that of salicylic acid, difference not significant) read?
Its value is “about 90%”.

What about the “KLK5 stimulation (in words)” value (rhKLK5 enzymatic activity) of the same compound?
Its value is “potent stimulator of KLK5”.
